≈ marks a conversion by molar mass, not a printed value. Calls of active or inactive are those of the source. No cut-off for these calls is given here.
Assays:
[1] = Resistance index, ratio of EC50 for wild type Hepatitis B virus to EC50 for Hepatitis B virus harboring […] transfected in human HepG2 cells measured after 6 days by qPCR analysis; type: functional; details: time 6 day
[2] = Resistance index, ratio of EC50 for wild type Hepatitis B virus to EC50 for Hepatitis B virus harboring L180M/M204 V/T184G/[…] transfected in human HepG2 cells measured after 6 days by qPCR analysis; type: functional; details: time 6 day
[3] = Resistance index, ratio of EC50 for wild type Hepatitis B virus to EC50 for Hepatitis B virus harboring L180M/M204 V/S202G transfected in human HepG2 cells measured after 6 days by qPCR analysis; type: functional; details: time 6 day
[4] = Resistance index, ratio of EC50 for wild type Hepatitis B virus to EC50 for Hepatitis B virus harboring L180M/M204 V/M250 V/[…] transfected in human HepG2 cells measured after 6 days by qPCR analysis; type: functional; details: time 6 day
Hepatitis B virus [5] = assay: Inhibition of HBV Cp150 dimer assembly assessed as formation of large abnormal particles at 20 uM incubated for 2 hrs by transmission electron microscopy
Hepatitis B virus [6] = assay: Antiviral activity against HBV infected in human HepG2.2.15 cells assessed as reduction in HBV DNA replication measured after 5 days by qPCR analysis; type: functional, organism-based; details: HepG2.2.15, 120 h
[7] = Metabolic stability in human liver microsomes assessed as clearance at 1 uM preincubated for 10 mins and measured upto 30 mins in presence of NADPH generating system by LC-MS/MS analysis; type: ADME, Microsome; details: time < 40 min
[8] = Metabolic stability in mouse liver microsomes assessed as clearance at 1 uM preincubated for 10 mins and measured upto 30 mins in presence of NADPH generating system by LC-MS/MS analysis; type: ADME, Microsome; details: time < 40 min
[9] = Selectivity index, ratio of CC50 for human HepDE19 cells assessed as reduction in cell viability to EC50 for HBV infected in human HepG2.2.15 cells assessed as reduction in HBV DNA replication; type: toxicity, cell-based; details: HBV-infected HepG2.2.15 cells (EC50)
[10] = Cytotoxicity against human HepDE19 cells assessed as reduction in cell viability measured after 5 days by CCK-8 method; type: functional; details: HepDE19, 120 h, time 5 day
[11] = Resistance index, ratio of EC50 for wild type Hepatitis B virus to EC50 for Hepatitis B virus harboring N236T transfected in human HepG2 cells measured after 6 days by qPCR analysis; type: functional; details: time 6 day
[12] = Resistance index, ratio of EC50 for wild type Hepatitis B virus to EC50 for Hepatitis B virus harboring A181T transfected in human HepG2 cells measured after 6 days by qPCR analysis; type: functional; details: time 6 day
[13] = Resistance index, ratio of EC50 for wild type Hepatitis B virus to EC50 for Hepatitis B virus harboring A181V transfected in human HepG2 cells measured after 6 days by qPCR analysis; type: functional; details: time 6 day
[14] = Resistance index, ratio of EC50 for wild type Hepatitis B virus to EC50 for Hepatitis B virus harboring A181V/N236T transfected in human HepG2 cells measured after 6 days by qPCR analysis; type: functional; details: time 6 day
[15] = Resistance index, ratio of EC50 for wild type Hepatitis B virus to EC50 for Hepatitis B virus harboring L180M/M204 V/A194T transfected in human HepG2 cells measured after 6 days by qPCR analysis; type: functional; details: time 6 day
[16] = Resistance index, ratio of EC50 for wild type Hepatitis B virus to EC50 for Hepatitis B virus harboring A181T/N236T transfected in human HepG2 cells measured after 6 days by qPCR analysis; type: functional; details: time 6 day
Hepatitis B virus [17] = assay: Inhibition of HBV replication transfected in human HepG2.2.15 cells assessed as inhibition of encapsidated DNA formation in cell lysate incubated for 5 days by SDS-PAGE analysis; type: functional, organism-based; details: dose <= 10.0 µM, time 5.0 day
[18] = Resistance index, ratio of EC50 for wild type Hepatitis B virus to EC50 for Hepatitis B virus harboring M204 V transfected in human HepG2 cells measured after 6 days by qPCR analysis; type: functional; details: time 6 day
[19] = Lyophilization solubility of the compound in phosphate buffer at pH 6.5 incubated for 1 hr under stirring condition and 2 hrs under shaking condition by HPLC-UV analysis; type: physicochemical
Hepatitis B virus [20] = assay: Inhibition of HBV replication transfected in human HepG2.2.15 cells assessed as assessed as induction of total core protein degradation in cell lysate at upto 10 uM incubated for 5 days by SDS-PAGE analysis; type: functional, organism-based; details: time 5.0 day
[21] = Resistance index, ratio of EC50 for wild type Hepatitis B virus to EC50 for Hepatitis B virus harboring L180M/M204V transfected in human HepG2 cells measured after 6 days by qPCR analysis; type: functional; details: time 6 day
Hepatitis B virus [22] = assay: Inhibition of HBV replication transfected in human HepG2.2.15 cells assessed as assessed as induction of capsid degradation in cell lysate at upto 10 uM incubated for 5 days by SDS-PAGE analysis; type: functional, organism-based; details: time 5.0 day
[23] = Cmax in C57BL/6 mouse plasma at 5 mg/kg, po administered as single dose measured upto 24 hrs by LC-MS/MS analysis; type: ADME, organism-based; design: dose 5 mg/kg, time < 24 hrs, route po
[24] = Plasma protein binding in mouse assessed as free fraction incubated for 5 hrs by LC-MS/MS analysis; type: ADME, cell-free
[25] = AUC (0 to infinity) in C57BL/6 mouse plasma at 5 mg/kg, po administered as single dose measured upto 24 hrs by LC-MS/MS analysis; type: ADME, organism-based; design: time < 24 hrs, dose 5 mg/kg, route po
[26] = Ratio of AUC (0 to infinity) in liver to plasma of C57BL/6 mouse liver at 5 mg/kg, po administered as single dose measured upto 24 hrs by LC-MS/MS analysis; type: ADME, organism-based; details: read-out: Ratio AUC
[27] = Volume of distribution at steady state in C57BL/6 mouse plasma at 2 mg/kg, iv administered as single dose measured upto 24 hrs by LC-MS/MS analysis; type: ADME, organism-based; details: read-out: Vdss
[28] = Half life in C57BL/6 mouse plasma at 2 mg/kg, iv administered as single dose measured upto 24 hrs by LC-MS/MS analysis; type: ADME, organism-based
[29] = Oral bioavailability in C57BL/6 mouse plasma at 5 mg/kg administered as single dose measured upto 24 hrs by LC-MS/MS analysis; type: ADME, organism-based
[30] = Clearance in C57BL/6 mouse plasma at 2 mg/kg, iv administered as single dose measured upto 24 hrs by LC-MS/MS analysis; type: ADME, organism-based
[31] = AUC (0 to infinity) in C57BL/6 mouse plasma at 2 mg/kg, iv administered as single dose measured upto 24 hrs by LC-MS/MS analysis; type: ADME, organism-based; design: dose 2 mg/kg, time < 24 hrs, route iv
[32] = AUC (0 to infinity) in C57BL/6 mouse liver at 5 mg/kg, po administered as single dose measured upto 24 hrs by LC-MS/MS analysis; type: ADME, organism-based; design: time < 24 hrs, dose 5 mg/kg, route po

| EC50 (Hepatitis B virus [6]) [nM] | CLhep predicted at 1 µM [7] [mL/min/kg] | CLhep predicted at 1 µM [8] [mL/min/kg] | Structure (SMILES) | selectivity ratio [9] | CC50 [10] [nM] | Ratio EC50 [11] | Ratio EC50 [12] | Ratio EC50 [13] | Ratio EC50 [14] | Ratio EC50 [16] | also measured |
| --- | --- | --- | --- | --- | --- | --- | --- | --- | --- | --- | --- |
| – | – | – | Cc1cn([C@@H]2C[C@@H](O)[C@H](CO)O2)c(=O)[nH]c1=O [TELBIVUDINE] | – | – | – | – | – | – | – | Ratio EC50 [1]: >165 |
| – | – | – | C=C1[C@H](CO)[C@@H](O)C[C@@H]1n1cnc2c(=O)[nH]c(N)nc21 [ENTECAVIR ANHYDROUS] | – | – | – | – | – | – | – | Ratio EC50 [2]: 607.1; Ratio EC50 [3]: 62.8; Ratio EC50 [4]: 712.4 |
| 70 | 15 | 60 | O=C(Nc1ccc(Cl)c(F)c1)N1CCn2ncc(-c3ccc(F)cc3)c2C1 | 443 | 31000 | – | – | – | – | – | Activity (Hepatitis B virus [5]): inactive |
| – | – | – | Nc1ncnc2c1ncn2CCOCP(=O)(O)O [ADEFOVIR] | – | – | 2.5 | 2.2 | 1.6 | – | – | – |
| – | – | – | C[C@H](Cn1cnc2c(N)ncnc21)OCP(=O)(O)O [TENOFOVIR ANHYDROUS] | – | – | 3.3 | 0.9 | 1.5 | 3.8 | 3.3 | Ratio EC50 [15]: 4.3 |
| – | – | – | Nc1ccn([C@@H]2CS[C@H](CO)O2)c(=O)n1 [LAMIVUDINE] | – | – | – | – | – | 5.8 | 29 | Ratio EC50 [18]: 19; Ratio EC50 [21]: >225 |
| 42 | 6.5 | 29 | C[C@H]1Cn2ncc(N3CCCC3=O)c2CN1C(=O)Nc1cc(F)c(F)c(F)c1 | > 2380 | > 100000 | – | – | – | – | – | Cmax [23]: 1130 ng/mL; fraction unbound at 5 h [24]: 0.18; AUC(0-inf) [25]: 2640 ng·h/mL; Kp at 24 h [26]: 3.2; solubility at 3 h [19]: 430 µg/mL (≈ 1090 µM); Vd [27]: 1 L/kg; half-life [28]: 1 h; bioavailability [29]: 43%; clearance [30]: 13.7 mL/min/kg; AUC(0-inf) [31]: 2440 ng·h/mL; AUC(0-inf) [32]: 8550 ng·h/mL |

| Structure (SMILES) | EC50 (Hepatitis B virus [6]) [nM] | CLhep predicted at 1 µM [7] [mL/min/kg] | CLhep predicted at 1 µM [8] [mL/min/kg] | selectivity ratio [9] | CC50 [10] [nM] | Ratio EC50 [11] | Ratio EC50 [12] | Ratio EC50 [13] | Ratio EC50 [14] | Ratio EC50 [16] | also measured |
| --- | --- | --- | --- | --- | --- | --- | --- | --- | --- | --- | --- |
| C[C@H]1Cn2ncc(N3CCCC3=O)c2CN1C(=O)Nc1ccc(F)c(Cl)c1 | 36 | 11 | 50 | 2600 | 94000 | 1.4 | 1.6 | 2.1 | 2.2 | 2.2 | Ratio EC50 [2]: 2.9; inhibition (Hepatitis B virus [17]): Dose-Dependent Effect; Ratio EC50 [18]: 1.8; Ratio EC50 [3]: 1.9; solubility at 3 h [19]: 330 µg/mL (≈ 842 µM); inhibition (Hepatitis B virus [20]): inactive; Ratio EC50 [15]: 2.2; Ratio EC50 [1]: 1.9; Ratio EC50 [21]: 2.6; Ratio EC50 [4]: 2.4; inhibition (Hepatitis B virus [22]): inactive |

Reference: ChEMBL document CHEMBL5370611, “Discovery of 4,5,6,7-Tetrahydropyrazolo[1.5-a]pyrizine Derivatives as Core Protein Allosteric Modulators (CpAMs) for the Inhibition of Hepatitis B Virus” (J Med Chem, 2023)
